Results reported in PubChem BioAssay AID328 (DTP/NCI, 2004).
Values joined by “and” are separate entries in the source; they are usually repeats but may differ in a detail not shown here. Identical values can stand only once. Toxic doses and inconclusive results are not listed.

Tested on: BDF1 mice, P388 leukemia ip, median survival T/C
Experiment: NCI In Vivo Anticancer Drug Screen. Data for tumor model P388 Leukemia (intraperitoneal) in B6D2F1 (BDF1) mice
Settings: endpoint: median survival time, higher = longer survival
In short: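 Mice carrying the transplantable tumour receive compound or vehicle. Survival is followed in each arm, and the treated measure is divided by the vehicle measure.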

[1] = dose: 6.25 mg/kg/injection, schedule: Q01DX009 (ip), vehicle: Klucel (hydroxypropylcellulose) (HPC)
[2] = dose: 12.5 mg/kg/injection, schedule: Q01DX009 (ip), vehicle: Klucel (hydroxypropylcellulose) (HPC)
[3] = dose: 25.0 mg/kg/injection, schedule: Q01DX009 (ip), vehicle: Klucel (hydroxypropylcellulose) (HPC)
[4] = dose: 12.5 mg/kg/injection, schedule: Q01DX001 (ip), vehicle: saline with Tween-80
[5] = dose: 25.0 mg/kg/injection, schedule: Q01DX001 (ip), vehicle: saline with Tween-80
[6] = dose: 12.5 mg/kg/injection, schedule: Q01DX009 (ip), vehicle: saline with Tween-80
[7] = dose: 100.0 mg/kg/injection, schedule: Q04DX003 (ip), vehicle: saline with Tween-80
[8] = dose: 200.0 mg/kg/injection, schedule: Q04DX003 (ip), vehicle: saline with Tween-80
[9] = dose: 400.0 mg/kg/injection, schedule: Q04DX003 (ip), vehicle: saline with Tween-80
[10] = dose: 50.0 mg/kg/injection, schedule: Q01DX009 (ip), vehicle: saline with Tween-80
[11] = dose: 100.0 mg/kg/injection, schedule: Q04DX003 (ip), vehicle: other
[12] = dose: 200.0 mg/kg/injection, schedule: Q04DX003 (ip), vehicle: other
[13] = dose: 400.0 mg/kg/injection, schedule: Q04DX003 (ip), vehicle: other
[14] = dose: 100.0 mg/kg/injection, schedule: Q01DX009 (ip), vehicle: saline with Tween-80
[15] = dose: 200.0 mg/kg/injection, schedule: Q01DX009 (ip), vehicle: saline with Tween-80
[16] = dose: 400.0 mg/kg/injection, schedule: Q01DX009 (ip), vehicle: saline with Tween-80

`Nc1nc(-c2ccccc2N=NN2CCN(N=Nc3ccccc3-c3nc(N)c4ccccc4n3)CC2)nc2ccccc12` was tested, and the T/C (dose: 0.78 mg/kg/injection, schedule: Q01DX009 (ip), vehicle: Klucel (hydroxypropylcellulose) (HPC)) was 100 % of control, the T/C (dose: 1.56 mg/kg/injection, schedule: Q01DX009 (ip), vehicle: Klucel (hydroxypropylcellulose) (HPC)) was 102 % of control and the T/C (dose: 3.13 mg/kg/injection, schedule: Q01DX009 (ip), vehicle: Klucel (hydroxypropylcellulose) (HPC)) was 111 % of control. For the same compound, the T/C [1] was 107 % of control and 110 % of control, the T/C [2] was 102 % of control and the T/C [3] was 108 % of control. The T/C (dose: 50.0 mg/kg/injection, schedule: Q01DX009 (ip), vehicle: Klucel (hydroxypropylcellulose) (HPC)) was 105 % of control.

With `[Se]c1nccn2cnnc12` the T/C (dose: 6.25 mg/kg/injection, schedule: Q01DX001 (ip), vehicle: saline with Tween-80) was 122 % of control, the T/C [4] was 105 % of control and the T/C [5] was 103 % of control.

In the case of `COP(=S)(NC(C)C)Oc1ccc(C)cc1[N+](=O)[O-]` (configuration not stated), the T/C (dose: 1.56 mg/kg/injection, schedule: Q01DX009 (ip), vehicle: saline with Tween-80) is reported as 106 % of control, the T/C (dose: 3.13 mg/kg/injection, schedule: Q01DX009 (ip), vehicle: saline with Tween-80) is reported as 89 % of control and the T/C (dose: 6.25 mg/kg/injection, schedule: Q01DX009 (ip), vehicle: saline with Tween-80) is reported as 97 % of control. For the same compound, the T/C [6] was 100 % of control.

For `CCC(=O)OCC(=O)[C@]1(O)Cc2c(O)c3c(c(O)c2[C@@H](OC2CC(N)C(O)C(C)O2)C1)C(=O)c1c(OC)cccc1C3=O` (some centres not stated), the T/C (dose: 0.12 mg/kg/injection, schedule: Q01DX009 (ip), vehicle: saline) was 170 % of control, the T/C (dose: 0.25 mg/kg/injection, schedule: Q01DX009 (ip), vehicle: saline) was 201 % of control and the T/C (dose: 0.5 mg/kg/injection, schedule: Q01DX009 (ip), vehicle: saline) was 219 % of control. The T/C (dose: 1.0 mg/kg/injection, schedule: Q01DX009 (ip), vehicle: saline) was 186 % of control, the T/C (dose: 2.0 mg/kg/injection, schedule: Q01DX009 (ip), vehicle: saline) was 241 % of control and the T/C (dose: 7.5 micrograms/kg/injection, schedule: Q01DX009 (ip), vehicle: saline) was 102 % of control. The T/C (dose: 15.0 micrograms/kg/injection, schedule: Q01DX009 (ip), vehicle: saline) was 107 % of control, the T/C (dose: 30.0 micrograms/kg/injection, schedule: Q01DX009 (ip), vehicle: saline) was 118 % of control and the T/C (dose: 60.0 micrograms/kg/injection, schedule: Q01DX009 (ip), vehicle: saline) was 170 % of control.

For `C=C(C)S(=O)(=O)c1ccc(C)cc1`, the T/C [7] was 108 % of control, the T/C [8] was 91 % of control and the T/C [9] was 88 % of control.

`COC1(C)CCC(C=O)C(C#N)(C#N)C1(C#N)C#N` (configuration not stated) was tested, and the T/C [4] was 98 % of control, the T/C [5] was 100 % of control and the T/C (dose: 50.0 mg/kg/injection, schedule: Q01DX001 (ip), vehicle: saline with Tween-80) was 104 % of control.

`OC1(C2CCCCC2)C2CCCC1CCC2` (configuration not stated) was tested, and the T/C [6] was 104 % of control, the T/C (dose: 25.0 mg/kg/injection, schedule: Q01DX009 (ip), vehicle: saline with Tween-80) was 95 % of control and the T/C [10] was 109 % of control. For the same compound, the T/C [11] was 104 % of control, the T/C [12] was 109 % of control and the T/C [13] was 104 % of control.

For `Cc1ccc2c(C)c3c(ccc4ccccc43)c[n+]2c1`, the T/C (dose: 1.25 mg/kg/injection, schedule: Q01DX009 (ip), vehicle: Klucel (hydroxypropylcellulose) (HPC)) was 115 % of control, the T/C (dose: 1.25 mg/kg/injection, schedule: Q01DX009 (ip), vehicle: saline) was 115 % of control and the T/C (dose: 2.5 mg/kg/injection, schedule: Q01DX009 (ip), vehicle: Klucel (hydroxypropylcellulose) (HPC)) was 120 % of control. The T/C (dose: 2.5 mg/kg/injection, schedule: Q01DX009 (ip), vehicle: saline) was 100 % of control, the T/C (dose: 2.5 mg/kg/injection, schedule: Q04DX003 (ip), vehicle: saline) was 100 % of control and the T/C (dose: 5.0 mg/kg/injection, schedule: Q04DX003 (ip), vehicle: saline) was 104 % of control. For the same compound, the T/C (dose: 10.0 mg/kg/injection, schedule: Q01DX009 (ip), vehicle: saline) was 90 % of control, the T/C (dose: 10.0 mg/kg/injection, schedule: Q04DX003 (ip), vehicle: saline) was 116 % of control and the T/C (dose: 20.0 mg/kg/injection, schedule: Q04DX003 (ip), vehicle: saline) was 120 % of control.

In the case of `O=C(NC(=O)c1c(F)cccc1F)Nc1ccc(OCc2ccccc2)cc1`, the T/C [10] is reported as 93 % of control and the T/C [14] is reported as 86 % of control.

For `COc1ccc2nc3cc(Cl)ccc3c(NCCCNCCCCNCCCNc3c4ccc(Cl)cc4nc4ccc(OC)cc34)c2c1`, the T/C (dose: 1.25 mg/kg/injection, schedule: Q01DX009 (ip), vehicle: saline with Tween-80) was 116 % of control and the T/C (dose: 2.5 mg/kg/injection, schedule: Q01DX009 (ip), vehicle: saline with Tween-80) was 107 % of control.

With `OC(CI)C(O)C(O)C(O)CI` (configuration not stated) the T/C [14] was 108 % of control, the T/C (dose: 100.0 mg/kg/injection, schedule: Q01DX009 (ip), vehicle: saline) was 102 % of control and the T/C [15] was 102 % of control. The T/C (dose: 200.0 mg/kg/injection, schedule: Q01DX009 (ip), vehicle: saline) was 109 % of control, the T/C (dose: 300.0 mg/kg/injection, schedule: Q01DX009 (ip), vehicle: saline with Tween-80) was 150 % of control and the T/C [16] was 122 % of control. The T/C (dose: 400.0 mg/kg/injection, schedule: Q01DX009 (ip), vehicle: saline) was 109 % of control and the T/C (dose: 600.0 mg/kg/injection, schedule: Q01DX009 (ip), vehicle: saline) was 118 % of control.

`CC(=O)OC1=NC(C)c2c1cc(OC(C)=O)[nH]c2=O` (configuration not stated) was tested, and the T/C [1] was 88 % of control, the T/C [2] was 96 % of control and the T/C [3] was 96 % of control. The T/C (dose: 100.0 mg/kg/injection, schedule: Q04DX003 (ip), vehicle: Klucel (hydroxypropylcellulose) (HPC)) was 112 % of control and the T/C (dose: 133.0 mg/kg/injection, schedule: Q04DX003 (ip), vehicle: Klucel (hydroxypropylcellulose) (HPC)) was 121 % of control.

For `C[C@]12CC[C@@H](O)C[C@H]1CC[C@@H]1[C@@H]2CC[C@]2(C)C(=O)CC[C@@H]12`, the T/C [14] was 90 % of control, the T/C [7] was 105 % of control and the T/C [15] was 90 % of control. The T/C [8] was 100 % of control, the T/C [16] was 90 % of control and the T/C [9] was 100 % of control.

`CSC1SCC2C(=O)N(C)C(C(C)C)C(=O)OCC(NC(=O)c3cnc4ccccc4n3)C(=O)NC(C)C(=O)N(C)C1C(=O)N(C)C(C(C)C)C(=O)OCC(NC(=O)c1cnc3ccccc3n1)C(=O)NC(C)C(=O)N2C` (configuration not stated) was tested, and the T/C (dose: 0.4 micrograms/kg/injection, schedule: Q01DX009 (ip), vehicle: saline with Tween-80) was 86 % of control, the T/C (dose: 0.9 micrograms/kg/injection, schedule: Q01DX009 (ip), vehicle: saline with Tween-80) was 89 % of control and the T/C (dose: 1.9 micrograms/kg/injection, schedule: Q01DX009 (ip), vehicle: saline with Tween-80) was 112 % of control. The T/C (dose: 3.8 micrograms/kg/injection, schedule: Q01DX009 (ip), vehicle: saline with Tween-80) was 96 % of control, the T/C (dose: 5.0 micrograms/kg/injection, schedule: Q01DX010 (ip), vehicle: saline) was 118 % of control and the T/C (dose: 20.0 micrograms/kg/injection, schedule: Q01DX010 (ip), vehicle: saline) was 95 % of control. The T/C (dose: 30.0 micrograms/kg/injection, schedule: Q01DX009 (ip), vehicle: saline with Tween-80) was 175 % of control.

For `COC(=O)C1C(O)C(C)C(O)C(C)/C=C\C=C(C)C(=O)Nc2c(C)c(OC(C)=O)c3c(c2O)C(=O)C(C)=C2OCOC(=C23)C(C)=CC(C)(O)C(O)C(C)C1O` (configuration not stated), the T/C (dose: 100.0 mg/kg/injection, schedule: Q01DX009 (ip), vehicle: Klucel (hydroxypropylcellulose) (HPC)) was 115 % of control, the T/C (dose: 200.0 mg/kg/injection, schedule: Q01DX009 (ip), vehicle: Klucel (hydroxypropylcellulose) (HPC)) was 108 % of control and 115 % of control and the T/C (dose: 400.0 mg/kg/injection, schedule: Q01DX009 (ip), vehicle: Klucel (hydroxypropylcellulose) (HPC)) was 106 % of control.

For `CCCS(=O)(=O)N(CC(=O)O)Cc1ccccc1`, the T/C (dose: 25.0 mg/kg/injection, schedule: Q04DX003 (ip), vehicle: other) was 106 % of control, the T/C (dose: 50.0 mg/kg/injection, schedule: Q04DX003 (ip), vehicle: other) was 104 % of control and the T/C [11] was 100 % of control. The T/C [12] was 106 % of control and the T/C [13] was 106 % of control.
